# From publication PMC9785777, “Antidiabetic Potential of Novel 1,3,5-Trisubstituted-2-Thioxoimidazloidin-4-One Analogues: Insights into α-Glucosidase, α-Amylase, and Antioxidant Activities” (Pharmaceuticals, 2022)
# Values joined by “and” are separate entries in the source; they are usually repeats but may differ in a detail not shown here. Equal entries are not always repeated.
# Legend:
# [1] = ROS-generation assay (H2O2 generated with DTT, HRP-phenol red, 610 nm); details: 50 µM compound, incubated with DTT; control 90.74±5.54
# Description: The […] metabolites and enzymes (such as NADPH oxidase, lipoxygenase, and cytochrome P450) act together to mediate the production of ROS and diminish the counteractive oxidative damage. ROS can cause damage to DNA, lipid, proteins, and nucleic acids and the destruction of cell components leading to cell death. Toward this end, we aimed to investigate whether the mode of action of this class of compounds involved the generation of ROS. ROS-producing compounds upon reaction with a reducing agent in the presence of oxygen afford superoxide O^•−2 radical and hydrogen peroxide (H2O2) which could be quantitively estimated. Thus, compounds 5a and 7a (at 50 µM concentration) were incubated with the reducing agent dithiothreitol (DTT) and the generated H2O2 was subsequently assessed by monitoring the oxidation of phenol red in the presence of horseradish peroxidase (HRP) at the absorbance of 610 nm. We first examined the validity of the assay by examining the activity of a known ROS-producing standard drug. In our study, Celecoxib was utilized as a reference pharmacological ROS-generating drug. […] Next, we evaluated the potency of compounds 5a and 7a to produce ROS at a 50 µM concentration.
# According to Nasiri et al., the antioxidant activity of compounds (5a, 7a) and Celecoxib was measured by an evaluation of ROS-generation using ELISA analysis. Three different solutions were prepared for the in vitro assessment of ROS-generation: phenol red, sodium hydroxide solution, and DTT. All reagents were provided by Sigma-Aldrich. A stock solution of DTT (20 mM) was prepared by dissolving […] of DTT in 500 µL of Hank’s Balanced Salt Solution (HBSS), and the obtained solution was preserved at −20 °C. The stock solution was further diluted with HBSS to 0.8 mM for each measurement. The HRP-PR solution was prepared by dissolving 1.8 mg of horseradish peroxidase (HRP) and 3 mg of phenol red (PR) in 10 mL of HBSS. […] After incubation, 1N NaOH was applied, and the absorbance at 610 nm was measured using a plate reader spectrometer. […]
# [2] = target: T1, α-glucosidase enzyme (EC3.2.1.20) (Saccharomyces cerevisiae, UniProt P53341); experiment: biochemical; details: for inhibition at 1 µg/mL / inhibition at 10 µg/mL / inhibition at 100 µg/mL / inhibition at 1000 µg/mL: read-out: % inhibition of α-glucosidase
# T1 construct: purchased Sigma-Aldrich
# T1 sequence (P53341 whole entry): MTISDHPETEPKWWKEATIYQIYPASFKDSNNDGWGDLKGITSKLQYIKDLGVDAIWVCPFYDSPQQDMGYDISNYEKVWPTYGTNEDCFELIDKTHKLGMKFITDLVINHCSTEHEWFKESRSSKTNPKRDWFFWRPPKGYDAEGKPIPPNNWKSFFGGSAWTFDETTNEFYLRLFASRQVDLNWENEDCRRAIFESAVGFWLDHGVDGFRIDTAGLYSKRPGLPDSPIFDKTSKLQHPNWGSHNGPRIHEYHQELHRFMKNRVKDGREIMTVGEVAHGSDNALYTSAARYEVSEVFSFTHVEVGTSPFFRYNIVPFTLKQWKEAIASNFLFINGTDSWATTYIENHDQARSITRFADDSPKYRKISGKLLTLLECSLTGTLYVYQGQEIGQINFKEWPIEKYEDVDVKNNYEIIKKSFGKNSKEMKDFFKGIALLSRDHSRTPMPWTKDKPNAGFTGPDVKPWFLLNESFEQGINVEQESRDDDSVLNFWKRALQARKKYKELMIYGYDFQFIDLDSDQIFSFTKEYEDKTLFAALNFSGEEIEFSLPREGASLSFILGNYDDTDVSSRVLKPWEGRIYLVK
# Description: The α-glucosidase enzyme is mainly expressed in the small intestine and catalyzes the breakdown of carbohydrates into glucose units by cleaving the glucosidic bonds. α-Glucosidase blockers are the first-line drugs for the treatment of non-insulin-dependent DM by suppressing carbohydrate hydrolysis and consequently retarding glucose absorption into the bloodstream and reducing postprandial hyperglycemia. α-Glucosidase is, thus, considered to be an attractive pharmaceutical target for the treatment of […] via control of the blood glucose levels. Accordingly, there is a continuous need to develop a potential class of α-glucosidase inhibitors. Toward this aim, we explored the potency of the synthesized compounds to inhibit the activity of α-glucosidase. We examined the inhibitory activity of the synthesized compounds following the reported assay by Peytam et al.. Thus, the compounds at different concentrations (1000, 100, 10, and 1 µg/mL) were incubated with α-glucosidase and subsequently […] was added and the absorbance was monitored at 405 nm. […] To further investigate the structural aspects of 1,3-thiohydantoin scaffold, a substitution at the N1-position with the methyl-proponate group was performed. […] Nevertheless, it has adverse gastrointestinal effects including diarrhea and flatulence. Thus, the discovery of a novel class of potent antidiabetic agents is urgently demanded.
# An ELISA reader was used to assess the inhibition of α-glucosidase by 1,3,5-trisubstituted-2-thioxoimidazolidin-4-ones derivatives at various doses (1000, 100, 10, and 1 µg/mL) according to Peytam et al.. […] Then, the substrate (25 µL, 4 mM) was added to the mentioned mixture and allowed to incubate at 37 °C for 20 min. Finally, the change in absorbance at 405 nm was monitored using a Cytation 3 hybrid microplate reader (BioTek, Winooski, VT, USA). […] GraphPad prism 6.0 was used to calculate the IC50 values of the investigated compounds from the nonlinear regression curve (Systat Software, Inc. Tools for Science) (https://www.graphpad.com/scientific-software/prism/ (accessed on 1 September 2022)).
# [3] = MTT cytotoxicity assay against WI-38 cells; assay type: cell-based, human; details: human, WI-38 lung fibroblast cells; for viability at 48 h, 4 µg/mL: 4 µg/mL (log conc. 0.602); for viability at 48 h, 16 µg/mL: 16 µg/mL (log conc. 1.204); for viability at 48 h, 63 µg/mL: 63 µg/mL (log conc. 1.799); for viability at 48 h, 250 µg/mL: 250 µg/mL (log conc. 2.398); for viability at 48 h, 1000 µg/mL: 1000 µg/mL (log conc. 3); for IC50 at 48 h: MTT
# Description: Based on the promising dual inhibitory activity of this class of compounds, we next evaluated the cytotoxicity of compounds 5a and 7a against human lung fibroblast cell line WI-38 in order to gain insights into the toxicity of this class of compounds utilizing the MTT assay. In this regard, lung fibroblast cells were cultured and treated with compounds 5a and 7a for 48 h at different concentrations (1000, 250, 63, 16, and 4 µg/mL). After the cells were washed, they were treated with MTT solution and the absorption was assessed using an ELISA reader at 570 nm. As a pharmacological reference drug, Celecoxib, a well-known anti-inflammatory agent, was utilized.
# The cytotoxicity of compounds 5a and 7a was assessed toward the human lung fibroblast WI-38 cell line (Sigma-Aldrich, St. Louis, MO, USA, product number 90020107) using MTT assay. The MTT test assay was performed in accordance with the previously stated procedure. MTT (3-(4,5-dimethylthiazol-2-yl)-2,5-diphenyl tetrazolium bromide; Sigma catalog no. M2128) was dissolved in PBS at 5 mg/mL and processed to eliminate the insoluble residues. Briefly, cells (10^5 cells/well) were treated for 48 h at 37 °C with compounds 5a and 7a at varied doses (1000, 250, 63, 16, and 4 µg/mL, DMSO stock solutions) in a 5% CO2 atmosphere. In our assessment, celecoxib, an inhibitor of cyclooxygenase 2, was employed as a standard reference drug. Following cell washing, MTT solution (180 µL/well) was applied to the cells and incubated at 37 °C for 4 h with shaking, and the absorbance was measured using an ELISA reader at 570 nm.
structure (smiles),measurement,setting,value
"COC(=O)CCN1C(=S)N(N=C(C)c2ccccc2O)C(=O)C1=Cc1ccccc1O [Compound 5a, Methyl [5-(2-hydroxybenzylidene)-4-oxo-3-(2-hydroxyphenylethylidene)amino-2-thioxoimidazolidin-1-yl] propionate]",ROS produced (generated H2O2),[1],132.4 pg/mL and 132.4 ± 2.16 pg/mL
same,IC50,[2],11.6 µM
same,inhibition at 1 µg/mL,[2],35%
same,inhibition at 10 µg/mL,[2],58%
same,inhibition at 100 µg/mL,[2],75%
same,inhibition at 1000 µg/mL,[2],86%
same,"viability at 48 h, 4 µg/mL",[3],69%
same,"viability at 48 h, 16 µg/mL",[3],59.8%
same,"viability at 48 h, 63 µg/mL",[3],52.9%
same,"viability at 48 h, 250 µg/mL",[3],44.1%
same,"viability at 48 h, 1000 µg/mL",[3],34.6%
same,IC50 at 48 h,[3],88.5 µg/mL
"COC(=O)CCN1C(=S)N(N=C(C)c2ccccc2O)C(=O)C1=Cc1ccccc1OC(C)=O [Compound 7a, Methyl [5-(2-acetoxybenzylidene)-4-oxo-3-(2-hydroxyphenylethylidene)amino-2-thioxoimidazolidin-1-yl] propionate]",ROS produced (generated H2O2),[1],191.5 pg/mL and 191.5 ± 3.62 pg/mL
same,IC50,[2],38.2 µM
same,inhibition at 1 µg/mL,[2],21.8%
same,inhibition at 10 µg/mL,[2],48.3%
same,inhibition at 100 µg/mL,[2],66.1%
same,inhibition at 1000 µg/mL,[2],82.6%
same,"viability at 48 h, 4 µg/mL",[3],73%
same,"viability at 48 h, 16 µg/mL",[3],60.6%
same,"viability at 48 h, 63 µg/mL",[3],53.4%
same,"viability at 48 h, 250 µg/mL",[3],44.1%
same,"viability at 48 h, 1000 µg/mL",[3],36.6%
same,IC50 at 48 h,[3],109 µg/mL
